Where two headings read alike, the source gives them in different places.
How the values were obtained:
[1] = tested on: KB-3-1; assay: Cell survival assay (SRB), KB-3-1; assay type: cell-based, human; conditions: Homo sapiens, KB 3-1, KB-3-1 cells (paclitaxel-sensitive parent); read-out: In vitro IC50 (nM) KB-3-1
Method in brief: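 Cells were exposed to serially diluted compound in duplicate for 3 days. Survival was read as protein content by SRB (TCA fixation 1 hr at 4 °C, 0.04% SRB stain, dissolved in 10 mM Tris, absorbance). KB-3-1 was grown in 20% FCS. IC50 is the concentration giving 50% growth inhibition.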

[2] = tested on: KB-8-5 (MDR1+); assay: Cell survival assay (SRB), KB-8-5 (MDR1+); conditions: for IC50: Homo sapiens, MDR1, read-out: In vitro IC50 (nM) KB85
[3] = tested on: KB-V1 (MDR1++); assay: Cell survival assay (SRB), KB-V1 (MDR1++); conditions: for IC50: Homo sapiens
[4] = read-out: In vitro IC50 (nM) KBV1

Row | SMILES | IC50 [1] [nM] | Ratio KB85/KB [2] | IC50 [2] [nM] | Ratio KBV1/KB [3] | IC50 [3, 4] [nM] | IC50 ([3]; read-out: In vitro IC50 KBV1) [nM]
1 | CN[C@H](C(=O)N[C@H](C(=O)N(C)[C@H](/C=C(\C)C(=O)O)C(C)C)C(C)(C)C)C(C)(C)c1cccc(F)c1 [Example 60, 3-Fluoro-N,β,β-trimethyl-L-phenylalanyl-N^1-[(1S,2E)-3-carboxy-1-isopropyl-2-butenyl]-N^1,3-dimethyl-L-valinamide] | 0.997 | 1.8 | 1.8 | 77.4 | 77 | –
2 | CN[C@@H](C(=O)N[C@H](C(=O)N(C)[C@H](/C=C(\C)C(=O)O)C(C)C)C(C)(C)C)C(C)(C)c1cccc(F)c1 [Example 61, 3-Fluoro-N,β,β-trimethyl-D-phenylalanyl-N^1-[(1S,2E)-3-carboxy-1-isopropyl-2-butenyl]-N^1,3-dimethyl-L-valinamide] | 12.6 | 1.5 | 18.6 | 79.4 | 1000 | –
3 | CN[C@@H](C(=O)N[C@H](C(=O)N(C)[C@H](/C=C(\C)C(=O)O)C(C)C)C(C)(C)C)C(C)(C)c1cccc(C(F)(F)F)c1 [Example 63, N,β,β-Trimethyl-3-(trifluoromethyl)-D-phenylalanyl-N^1-[(1S,2E)-3-carboxy-1-isopropyl-2-butenyl]-N^1,3-dimethyl-L-valinamide] | 19.1 | 2.4 | 45.7 | 69.0 | 1320 | –
4 | CN[C@H](C(=O)N[C@H](C(=O)N(C)[C@H](/C=C(\C)C(=O)O)C(C)C)C(C)(C)C)C(C)(C)c1cc(F)cc(F)c1 [Example 64, 3,5-Difluoro-N,β,β-trimethyl-L-phenylalanyl-N^1-[(1S,2E)-3-carboxy-1-isopropylbut-2-enyl]-N^1,3-dimethyl-L-valinamide] | 6.2 | 2.6 | 16.2 | 73.7 | 457 | –
5 | CN[C@H](C(=O)N[C@H](C(=O)N(C)[C@H](/C=C(\C)C(=O)O)C(C)C)C(C)(C)C)C(C)(C)c1cc(C(F)(F)F)cc(C(F)(F)F)c1 [Example 66, N,β,β-trimethyl-3,5-bis(trifluoromethyl)-L-phenylalanyl-N^1-[(1S,2E)-3-carboxy-1-isopropylbut-2-enyl]-N^1,3-dimethyl-L-valinamide] | 17 | 1.1 | 19 | 26.9 | 457 | –
6 | CN[C@@H](C(=O)N[C@H](C(=O)N(C)[C@H](/C=C(\C)C(=O)O)C(C)C)C(C)(C)C)C(C)(C)c1cc(C(F)(F)F)cc(C(F)(F)F)c1 [Example 67, N,β,β-trimethyl-3,5-bis(trifluoromethyl)-D-phenylalanyl-N^1-[(1S,2E)-3-carboxy-1-isopropylbut-2-enyl]-N^1,3-dimethyl-L-valinamide] | 170 | 1.1 | 186 | – | – | > 3000
7 | CN[C@H](C(=O)N[C@H](C(=O)N(C)[C@H](/C=C(\C)C(=O)O)C(C)C)C(C)(C)C)C(C)(C)c1ccc(OC(C)C)cc1 [Example 68, O-isopropyl-N,β,β-trimethyl-L-tyrosyl-N^1-[(1S,2E)-3-carboxy-1-isopropylbut-2-enyl]-N^1,3-dimethyl-L-valinamide] | 1.5 | 2.9 | 4.3 | 47.2 | 70.8 | –
8 | CN[C@H](C(=O)N[C@H](C(=O)N(C)[C@H](/C=C(\C)C(=O)O)C(C)C)C(C)(C)C)C1(c2ccccc2)CCCC1 [Example 71, (2E,4S)-2,5-dimethyl-4-(methyl{3-methyl-N-[(2S)-2-(methylamino)-2-(1-phenylcyclopentyl)ethanoyl]-L-valyl}amino)-2-hexenoic acid] | 141 | 1.3 | 186 | 21.2 | ≥ 3000 | –
9 | CN[C@@H](C(=O)N[C@H](C(=O)N(C)[C@H](/C=C(\C)C(=O)O)C(C)C)C(C)(C)C)C1(c2ccccc2)CCCC1 [Example 72, (2E,4S)-2,5-dimethyl-4-(methyl{3-methyl-N-[(2R)-2-(methylamino)-2-(1-phenylcyclopentyl)ethanoyl]-L-valyl}amino)-2-hexenoic Acid] | 59.3 | 1.1 | 63.1 | 45.0 | 2660 | –
10 | CNC(C(=O)N[C@H](C(=O)N(C)[C@@H](/C=C(\C)C(=O)O)C(C)C)C(C)(C)C)C1(c2ccccc2)CCCCC1 (stereo partly drawn) [Example 73, (2E,4R)-2,5-dimethyl4-(methyl{3-methyl-N-[(methylamino)(1-phenylcyclohexyl)acetyl]-L-valyl}amino)-2-hexenoic Acid] | 204 | 1.8 | 363 | 14.7 | ≥ 3000 | –
11 | CCCC[C@@H](/C=C(\C)C(=O)O)N(C)C(=O)[C@@H](NC(=O)[C@@H](NC)C(C)(C)c1ccccc1)C(C)(C)C [Example 75, N,β,β-Trimethyl-L-phenylalanyl-N^1-[(1S,2E)-1-butyl-3-carboxybut-2-enyl]-N^1,3-dimethyl-L-valinamide] | 36 | 2.2 | 78 | 60.0 | 2130 | –
12 | CC/C(=C\[C@H](CC(C)C)N(C)C(=O)[C@@H](NC(=O)[C@@H](NC)C(C)(C)c1ccccc1)C(C)(C)C)C(=O)O [Example 76, N,β,β-Trimethyl-L-phenylalanyl-N^1-[(1S,2E)-3-carboxy-1-isobutyl-2-pentenyl]-N^1,3-dimethyl-L-valinamide] | 70.8 | 2.4 | 169 | 42.4 | ≥ 3000 | –
13 | CCCC/C(=C\[C@@H](NC(=O)[C@@H](NC(=O)[C@@H](NC)C(C)(C)c1ccccc1)C(C)(C)C)C(C)C)C(=O)O [Example 77, (E,4S)-2-Butyl-4-[((2S)-3,3-dimethyl-2-{[(2S)-3-methyl-2-(methylamino)-3-phenylbutanoyl]amino}butanoyl)amino]-5-methyl-2-hexenoic Acid] | 575 | 3.0 | 1740 | 5.2 | ≥ 3000 | –
14 | CCOC(=O)/C(C)=C/[C@H](C(C)C)N(C)C(=O)[C@@H](NC(=O)[C@@H](NC)C(C)(C)c1ccccc1)C(C)(C)SC [Example 79, Ethyl (E,4S)-2,5-dimethyl-4-{methyl[(2R)-3-methyl-2-{[(2S)-3-methyl-2-(methylamino)-3-phenylbutanoyl]amino}-3-(methylsulfanyl)butanoyl]amino}-2-hexenoate] | 449 | 3.2 | 1420 | 5.4 | 2440 | –
15 | CN[C@H](C(=O)N[C@H](C(=O)N(C)[C@H](/C=C(\C)C(=O)O)C(C)C)C(C)(C)S(C)(=O)=O)C(C)(C)c1ccccc1 [Example 81, N,β,β-trimethyl-L-phenylalanyl-N^1-[(1S,2E)-3-carboxy-1-isopropyl-2-butenyl]-N^1-methyl-3-(methylsulfonyl)-L-valinamide] | 178 | 3.3 | 589 | 16.9 | ≥ 3000 | –
16 | CN[C@H](C(=O)N[C@H](C(=O)N(C)[C@H](/C=C(\C)C(=O)O)C(C)C)C(C)(C)SCc1ccc(OC)cc1)C(C)(C)c1ccccc1 [Example 82, N,β,β-trimethyl-L-phenylalanyl-N^1-[(1S,2E)-3-carboxy-1-isopropyl-2-butenyl]-3-[(4-methoxybenzyl)sulfanyl]-N^1-methyl-L-valinamide] | 59 | 1.7 | 100 | 40.1 | 2360 | –
17 | CN[C@H](C(=O)N[C@H](C(=O)N(C)[C@H](/C=C(\C)C(=O)O)C(C)C)C(C)(C)SCc1ccc(OC)cc1)C(C)(C)c1ccc(OC)cc1 [Example 83, N,O,β,β-tetramethyl-L-tyrosyl-N^1-[(1S,2E)-3-carboxy-1-isopropyl-2-butenyl]-3-[(4-methoxybenzyl)sulfanyl]-N^1-methyl-L-valinamide] | 15.8 | 2.8 | 43.7 | 132.2 | 2090 | –
18 | CN[C@H](C(=O)N[C@H](C(=O)N(C)[C@H](/C=C(\C)C(=O)O)C(C)C)C(C)(C)SC)C(C)(C)c1ccc(OC)cc1 [Example 84, N,O,β,β-tetramethyl-L-tyrosyl-N^1-[(1S,2E)-3-carboxy-1-isopropyl-2-butenyl]-N^1-methyl-3-(methylsulfanyl)-L-valinamide] | 1.6 | 3.2 | 5.1 | 188.7 | 302 | –
19 | CN[C@H](C(=O)N[C@H](C(=O)N(C)[C@H](/C=C(\C)C(=O)O)C(C)C)[C@H](C)O)C(C)(C)c1ccccc1 [Example 86, N,β,β-trimethyl-L-phenylalanyl-N^1-[(1S,2E)-3-carboxy-1-isopropyl-2-butenyl]-N^1-methyl-L-allothreoninamide] | 311 | 2.2 | 669 | 9.7 | ≥ 3000 | –
20 | CN[C@H](C(=O)N[C@H](C(=O)N(C)[C@H](/C=C(\C)C(=O)O)C(C)C)C(C)(C)c1ccc(OC)cc1)C(C)(C)c1ccccc1 [Example 87, N,β,β-trimethyl-L-phenylalanyl-N-[(1S,2E)-3-carboxy-1-isopropyl-2-butenyl]-N,O,β,β-tetramethyl-L-tyrosinamide] | 27.2 | 2.1 | 56.3 | 72.4 | 1970 | –

Reference: patent publication US20040121965A1, “Method of treating resistant tumors” (Wyeth Holdings Corporation, priority 2002, published 2004)
